# Test results as given in PMC8286840, “Identifying SARS-CoV-2 antiviral compounds by screening for small molecule inhibitors of Nsp3 papain-like protease” (Biochemical Journal, 2021).
# Where a name gives a salt, the structure may show the parent alone. Read-outs that look alike come from different tables or passages of the source.
# Experiments:
# [1] = biological target: T1, SARS-CoV-2 PLpro (nsp3 1564–1878) (Severe acute respiratory syndrome coronavirus 2, UniProt P0DTD1); assay: biochemical; parameters: FRET-quenched peptide (Pro3) cleavage by PLpro, 10 min pre-incubation, slope over 20 min, normalised to no-compound control; conditions: low concentration screen, read-out: % of control remaining
# [2] = biological target: T1, SARS-CoV-2 PLpro (nsp3 1564–1878); assay: biochemical; parameters: FRET-quenched peptide (Pro3) cleavage by PLpro, 10 min pre-incubation, slope over 20 min, normalised to no-compound control; conditions: high concentration screen, read-out: % of control remaining
smiles,measurement,setting,value
CC(=O)NS(=O)(=O)c1ccc(N)cc1 [Sulfacetamide Sodium],remaining activity at 1.25 µM,[1]; Well no.=4740,106%
same,remaining activity at 3.75 µM,[2]; Well no.=4740,106%
Nc1ccc(S(=O)(=O)Nc2ccc(Cl)nn2)cc1 [Sulfachloropyridazine],remaining activity at 1.25 µM,[1]; Well no.=8360,93.9%
same,remaining activity at 3.75 µM,[2]; Well no.=8360,92.1%
Nc1ccc(S(=O)(=O)Nc2cncc(Cl)n2)cc1 [Sulfaclozine (sodium)],remaining activity at 1.25 µM,[1]; Well no.=7458,96.2%
same,remaining activity at 3.75 µM,[2]; Well no.=7458,93.3%
Nc1ccc(S(=O)(=O)Nc2ncccn2)cc1 [Sulfadiazine],remaining activity at 1.25 µM,[1]; Well no.=2289,99.4%
same,remaining activity at 1.25 µM,[1]; Well no.=7494,97.4%
same,remaining activity at 3.75 µM,[2]; Well no.=2289,102%
same,remaining activity at 3.75 µM,[2]; Well no.=7494,98.3%
COc1cc(NS(=O)(=O)c2ccc(N)cc2)nc(OC)n1 [Sulfadimethoxine],remaining activity at 1.25 µM,[1]; Well no.=2291,93.2%
same,remaining activity at 1.25 µM,[1]; Well no.=8358,95.1%
same,remaining activity at 3.75 µM,[2]; Well no.=2291,91.8%
same,remaining activity at 3.75 µM,[2]; Well no.=8358,95.5%
COc1ncnc(NS(=O)(=O)c2ccc(N)cc2)c1OC [Sulfadoxine],remaining activity at 1.25 µM,[1]; Well no.=2287,97%
same,remaining activity at 1.25 µM,[1]; Well no.=7358,95.6%
same,remaining activity at 3.75 µM,[2]; Well no.=2287,92.6%
same,remaining activity at 3.75 µM,[2]; Well no.=7358,98%
N=C(N)NS(=O)(=O)c1ccc(N)cc1 [Sulfaguanidine],remaining activity at 1.25 µM,[1]; Well no.=7348,93.5%
same,remaining activity at 3.75 µM,[2]; Well no.=7348,93.1%
COc1nccnc1NS(=O)(=O)c1ccc(N)cc1 [Sulfalene],remaining activity at 1.25 µM,[1]; Well no.=8228,103%
same,remaining activity at 3.75 µM,[2]; Well no.=8228,85.7%
Cc1ccnc(NS(=O)(=O)c2ccc(N)cc2)n1 [Sulfamerazine],remaining activity at 1.25 µM,[1]; Well no.=4941,92.6%
same,remaining activity at 1.25 µM,[1]; Well no.=8644,94.8%
same,remaining activity at 3.75 µM,[2]; Well no.=4941,83.3%
same,remaining activity at 3.75 µM,[2]; Well no.=8644,92.4%
COc1cnc(NS(=O)(=O)c2ccc(N)cc2)nc1 [Sulfameter],remaining activity at 1.25 µM,[1]; Well no.=7406,98.3%
same,remaining activity at 1.25 µM,[1]; Well no.=8236,91.9%
same,remaining activity at 3.75 µM,[2]; Well no.=7406,100%
same,remaining activity at 3.75 µM,[2]; Well no.=8236,88.3%
Cc1cc(C)nc(NS(=O)(=O)c2ccc(N)cc2)n1 [Sulfamethazine],remaining activity at 1.25 µM,[1]; Well no.=4940,96.7%
same,remaining activity at 1.25 µM,[1]; Well no.=7456,99.7%
same,remaining activity at 3.75 µM,[2]; Well no.=4940,95.8%
same,remaining activity at 3.75 µM,[2]; Well no.=7456,99.2%
Cc1nnc(NS(=O)(=O)c2ccc(N)cc2)s1 [Sulfamethizole],remaining activity at 1.25 µM,[1]; Well no.=7444,94.6%
same,remaining activity at 1.25 µM,[1]; Well no.=8179,108%
same,remaining activity at 3.75 µM,[2]; Well no.=7444,92.4%
same,remaining activity at 3.75 µM,[2]; Well no.=8179,106%
Cc1cc(NS(=O)(=O)c2ccc(N)cc2)no1 [Sulfamethoxazole],remaining activity at 1.25 µM,[1]; Well no.=4662,102%
same,remaining activity at 3.75 µM,[2]; Well no.=4662,98.1%
same,remaining activity at 3.75 µM,[2]; Well no.=7398,107%
COc1ccc(NS(=O)(=O)c2ccc(N)cc2)nn1 [Sulfamethoxypyridazine],remaining activity at 1.25 µM,[1]; Well no.=7354,101%
same,remaining activity at 1.25 µM,[1]; Well no.=8613,94.6%
same,remaining activity at 3.75 µM,[2]; Well no.=7354,99.7%
same,remaining activity at 3.75 µM,[2]; Well no.=8613,94.7%
COc1cc(NS(=O)(=O)c2ccc(N)cc2)ncn1 [Sulfamonomethoxine],remaining activity at 1.25 µM,[1]; Well no.=7544,98.1%
same,remaining activity at 3.75 µM,[2]; Well no.=7544,98.5%
Nc1ccc(S(N)(=O)=O)cc1 [Sulfanilamide],remaining activity at 1.25 µM,[1]; Well no.=4620,106%
same,remaining activity at 1.25 µM,[1]; Well no.=7540,94.6%
same,remaining activity at 3.75 µM,[2]; Well no.=4620,108%
same,remaining activity at 3.75 µM,[2]; Well no.=7540,93.1%
Nc1ccc(S(=O)(=O)Nc2ccnn2-c2ccccc2)cc1 [Sulfaphenazole],remaining activity at 1.25 µM,[1]; Well no.=1404,104%
same,remaining activity at 1.25 µM,[1]; Well no.=8418,85.5%
same,remaining activity at 3.75 µM,[2]; Well no.=1404,99.3%
same,remaining activity at 3.75 µM,[2]; Well no.=8418,85.2%
Nc1ccc(S(=O)(=O)Nc2cnc3ccccc3n2)cc1 [Sulfaquinoxaline sodium salt],remaining activity at 1.25 µM,[1]; Well no.=8124,103%
same,remaining activity at 3.75 µM,[2]; Well no.=8124,100%
O=C(O)c1cc(/N=N/c2ccc(S(=O)(=O)Nc3ccccn3)cc2)ccc1O [Sulfasalazine],remaining activity at 1.25 µM,[1]; Well no.=2293,96.4%
same,remaining activity at 1.25 µM,[1]; Well no.=7312,101%
same,remaining activity at 3.75 µM,[2]; Well no.=2293,97.5%
same,remaining activity at 3.75 µM,[2]; Well no.=7312,101%
Nc1ccc(S(=O)(=O)Nc2nccs2)cc1 [Sulfathiazole (sodium)],remaining activity at 1.25 µM,[1]; Well no.=7404,104%
same,remaining activity at 3.75 µM,[2]; Well no.=7404,102%
Nc1ccc(S(=O)(=O)Nc2nccs2)cc1 [Sulfathiazole],remaining activity at 1.25 µM,[1]; Well no.=4937,98.9%
same,remaining activity at 3.75 µM,[2]; Well no.=4937,95.6%
Cc1noc(NS(=O)(=O)c2ccc(N)cc2)c1C [Sulfisoxazole],remaining activity at 1.25 µM,[1]; Well no.=4664,95.8%
same,remaining activity at 1.25 µM,[1]; Well no.=7548,104%
same,remaining activity at 1.25 µM,[1]; Well no.=8283,97.8%
same,remaining activity at 3.75 µM,[2]; Well no.=4664,97.2%
same,remaining activity at 3.75 µM,[2]; Well no.=7548,101%
same,remaining activity at 3.75 µM,[2]; Well no.=8283,97.6%
CSc1ccc(/C=C2/C(C)=C(CC(=O)O)c3cc(F)ccc32)cc1 [Sulindac sulfide],remaining activity at 1.25 µM,[1]; Well no.=6089,96.2%
same,remaining activity at 3.75 µM,[2]; Well no.=6089,93.8%
CC1=C(CC(=O)O)c2cc(F)ccc2/C1=C\c1ccc(S(C)(=O)=O)cc1 [Sulindac sulfone],remaining activity at 1.25 µM,[1]; Well no.=1500,95.3%
same,remaining activity at 3.75 µM,[2]; Well no.=1500,96.6%
CC1=C(CC(=O)O)c2cc(F)ccc2/C1=C\c1ccc([S+](C)[O-])cc1 (stereo not drawn) [Sulindac],remaining activity at 1.25 µM,[1]; Well no.=1270,102%
same,remaining activity at 1.25 µM,[1]; Well no.=1756,98.1%
same,remaining activity at 3.75 µM,[2]; Well no.=1270,105%
same,remaining activity at 3.75 µM,[2]; Well no.=1756,96.7%
CCN1CCCC1CNC(=O)c1cc(S(N)(=O)=O)ccc1OC (stereo not drawn) [Sulpiride],remaining activity at 1.25 µM,[1]; Well no.=6423,99.1%
same,remaining activity at 3.75 µM,[2]; Well no.=6423,97.9%
CN[C@@H]1Cc2cccc3[nH]c(=O)n(c23)C1 [Sumanirole maleate],remaining activity at 1.25 µM,[1]; Well no.=5386,99.1%
same,remaining activity at 3.75 µM,[2]; Well no.=5386,104%
CNS(=O)(=O)Cc1ccc2[nH]cc(CCN(C)C)c2c1 [Sumatriptan (succinate)],remaining activity at 1.25 µM,[1]; Well no.=6379,104%
same,remaining activity at 3.75 µM,[2]; Well no.=6379,91%
CNS(=O)(=O)Cc1ccc2[nH]cc(CCN(C)C)c2c1 [Sumatriptan Succinate],remaining activity at 1.25 µM,[1]; Well no.=2085,96.9%
same,remaining activity at 3.75 µM,[2]; Well no.=2085,97.6%
